In ChEMBL document CHEMBL1201862, “PubChem BioAssay data set” (2004):
Calls of active or inactive are those of the source.

Experiments:
[1] = biological target: Large T antigen (Simian virus 40, UniProt P03070); assay type: functional, Betapolyomavirus macacae;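 note: Confirmatory-stage PubChem screen for compounds that inhibit SV40 T antigen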
[2] = biological target: T1, Rac GTPase-activating protein 1 (Homo sapiens, UniProt Q9H0H5); assay: blockers of MgcRacGAP-driven Rac1 GTP hydrolysis – biochemical, ADP Hunter fluorescence, primary and confirmatory, confirmation (AID 624330); assay type: functional
T1 sequence (Q9H0H5 whole entry): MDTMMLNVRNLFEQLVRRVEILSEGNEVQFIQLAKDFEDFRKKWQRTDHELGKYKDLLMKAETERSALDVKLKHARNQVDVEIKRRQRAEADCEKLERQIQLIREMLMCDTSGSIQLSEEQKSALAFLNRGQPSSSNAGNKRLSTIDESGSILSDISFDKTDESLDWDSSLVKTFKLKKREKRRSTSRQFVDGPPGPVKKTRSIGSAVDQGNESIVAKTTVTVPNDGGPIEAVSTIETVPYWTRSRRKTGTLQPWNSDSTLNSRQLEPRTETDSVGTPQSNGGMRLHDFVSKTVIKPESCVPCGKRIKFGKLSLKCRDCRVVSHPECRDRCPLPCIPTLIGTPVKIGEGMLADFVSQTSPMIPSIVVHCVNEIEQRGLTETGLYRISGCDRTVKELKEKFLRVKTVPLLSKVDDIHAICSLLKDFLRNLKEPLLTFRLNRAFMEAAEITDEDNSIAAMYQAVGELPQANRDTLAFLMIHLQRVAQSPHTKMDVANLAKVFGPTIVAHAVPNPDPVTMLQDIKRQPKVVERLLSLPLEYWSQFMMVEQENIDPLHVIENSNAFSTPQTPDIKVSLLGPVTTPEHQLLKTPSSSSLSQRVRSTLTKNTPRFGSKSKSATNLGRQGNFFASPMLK

[3] = biological target: T2, Replicative DNA helicase DnaB (Mycobacterium tuberculosis, UniProt P9WMR3); assay: DnaB intein splicing inhibitors, dose response, biochemical, cell-free fluorescence (AID 449749); assay type: functional
T2 sequence (P9WMR3 whole entry): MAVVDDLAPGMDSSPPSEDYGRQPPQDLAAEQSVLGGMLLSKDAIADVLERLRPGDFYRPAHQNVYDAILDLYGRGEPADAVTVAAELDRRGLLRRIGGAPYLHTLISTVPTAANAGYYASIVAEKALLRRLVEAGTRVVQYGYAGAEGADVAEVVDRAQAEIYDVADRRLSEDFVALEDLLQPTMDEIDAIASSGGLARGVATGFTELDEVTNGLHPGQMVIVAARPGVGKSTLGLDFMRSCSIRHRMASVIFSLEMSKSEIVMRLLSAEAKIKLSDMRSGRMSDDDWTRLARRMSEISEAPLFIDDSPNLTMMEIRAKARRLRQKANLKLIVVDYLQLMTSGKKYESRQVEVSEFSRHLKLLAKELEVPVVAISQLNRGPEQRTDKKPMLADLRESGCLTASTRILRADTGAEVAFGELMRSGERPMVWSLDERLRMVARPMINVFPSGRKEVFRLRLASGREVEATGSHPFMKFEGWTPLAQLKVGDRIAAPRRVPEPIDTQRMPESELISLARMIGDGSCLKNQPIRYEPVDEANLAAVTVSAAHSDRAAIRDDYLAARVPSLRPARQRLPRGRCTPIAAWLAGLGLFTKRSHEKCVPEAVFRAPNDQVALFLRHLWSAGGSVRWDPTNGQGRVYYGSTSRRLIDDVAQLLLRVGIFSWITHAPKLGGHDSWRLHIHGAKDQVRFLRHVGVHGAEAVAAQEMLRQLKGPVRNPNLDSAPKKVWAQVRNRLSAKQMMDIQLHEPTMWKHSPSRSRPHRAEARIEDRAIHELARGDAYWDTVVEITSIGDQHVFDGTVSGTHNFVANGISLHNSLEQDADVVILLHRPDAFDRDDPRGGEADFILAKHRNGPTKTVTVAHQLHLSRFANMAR

[4] = THP-1 cell cytotoxicity, dose response, cytotoxicity control for non-replicating M. tuberculosis project (AID 489025); assay type: functional
[5] = biological target: T3, Protein RecA (Mycobacterium tuberculosis, UniProt P9WHJ3); assay: Fluorescence Cell-Free Homogeneous Dose Retest to Identify Inhibitors of RecA-Intein Splicing Activity. [Related pubchem assays (depositor defined):AID2097, AID2223, AID489010, AID492950]; assay type: functional
T3 sequence (P9WHJ3 whole entry): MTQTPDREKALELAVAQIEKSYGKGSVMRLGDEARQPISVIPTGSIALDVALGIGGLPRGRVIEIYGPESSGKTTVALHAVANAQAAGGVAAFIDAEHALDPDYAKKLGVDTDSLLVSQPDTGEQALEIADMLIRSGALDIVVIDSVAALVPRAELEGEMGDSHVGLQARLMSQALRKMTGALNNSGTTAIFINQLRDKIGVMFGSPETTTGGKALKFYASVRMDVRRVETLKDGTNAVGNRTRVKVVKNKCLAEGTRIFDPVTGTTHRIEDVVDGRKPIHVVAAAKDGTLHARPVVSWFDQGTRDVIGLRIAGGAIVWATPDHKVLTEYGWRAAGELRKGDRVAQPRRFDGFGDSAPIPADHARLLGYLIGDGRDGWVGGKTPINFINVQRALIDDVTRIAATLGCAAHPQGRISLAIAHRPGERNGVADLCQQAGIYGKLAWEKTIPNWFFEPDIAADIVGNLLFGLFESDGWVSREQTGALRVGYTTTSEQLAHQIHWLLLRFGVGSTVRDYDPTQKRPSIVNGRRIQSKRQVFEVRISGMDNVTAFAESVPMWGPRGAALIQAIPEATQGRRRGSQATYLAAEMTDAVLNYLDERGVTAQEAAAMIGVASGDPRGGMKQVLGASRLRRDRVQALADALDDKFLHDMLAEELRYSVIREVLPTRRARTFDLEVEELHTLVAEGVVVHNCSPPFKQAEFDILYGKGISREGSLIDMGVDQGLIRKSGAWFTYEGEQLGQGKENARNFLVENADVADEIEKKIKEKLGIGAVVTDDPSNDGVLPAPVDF

[6] = cells; assay type: functional
[7] = biological target: T4, Aminopeptidase N (Plasmodium falciparum FcB1/Columbia, UniProt O96935); assay: malaria alanyl aminopeptidase activity blockers – biochemical, fluorogenic H-Leu-NHMec substrate, 1536-well (AID 1445); parameters: species or system Plasmodium falciparum 3D7, 3D7
T4 sequence (O96935 whole entry): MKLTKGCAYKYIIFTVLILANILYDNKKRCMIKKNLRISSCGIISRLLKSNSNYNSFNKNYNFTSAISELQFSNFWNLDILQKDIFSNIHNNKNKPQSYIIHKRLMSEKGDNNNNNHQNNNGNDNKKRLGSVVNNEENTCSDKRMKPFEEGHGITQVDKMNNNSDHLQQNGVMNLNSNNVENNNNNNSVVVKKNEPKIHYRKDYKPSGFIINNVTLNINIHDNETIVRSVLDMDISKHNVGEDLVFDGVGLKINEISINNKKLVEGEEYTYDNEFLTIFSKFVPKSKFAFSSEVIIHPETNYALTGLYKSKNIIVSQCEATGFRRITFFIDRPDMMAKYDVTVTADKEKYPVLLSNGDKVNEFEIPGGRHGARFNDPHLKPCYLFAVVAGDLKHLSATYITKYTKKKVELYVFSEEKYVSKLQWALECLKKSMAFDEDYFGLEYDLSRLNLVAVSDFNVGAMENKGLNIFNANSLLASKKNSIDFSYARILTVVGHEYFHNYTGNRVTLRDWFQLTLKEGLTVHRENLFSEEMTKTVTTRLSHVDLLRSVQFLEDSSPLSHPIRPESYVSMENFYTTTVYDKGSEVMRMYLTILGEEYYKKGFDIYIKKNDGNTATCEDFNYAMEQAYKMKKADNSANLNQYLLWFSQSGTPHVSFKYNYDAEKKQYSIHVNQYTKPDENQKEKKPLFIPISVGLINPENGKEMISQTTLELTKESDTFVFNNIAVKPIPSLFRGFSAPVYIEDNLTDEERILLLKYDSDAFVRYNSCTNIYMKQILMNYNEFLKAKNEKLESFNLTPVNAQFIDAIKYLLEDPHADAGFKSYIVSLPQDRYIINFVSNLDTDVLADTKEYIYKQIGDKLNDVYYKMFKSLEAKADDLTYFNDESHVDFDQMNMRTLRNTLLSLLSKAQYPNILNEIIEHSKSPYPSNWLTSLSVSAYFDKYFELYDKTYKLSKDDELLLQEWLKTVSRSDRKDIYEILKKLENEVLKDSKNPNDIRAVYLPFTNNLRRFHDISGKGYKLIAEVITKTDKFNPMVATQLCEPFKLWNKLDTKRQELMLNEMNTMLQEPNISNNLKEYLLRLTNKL

[8] = biological target: T5, Leucine aminopeptidase (Plasmodium falciparum 3D7, UniProt Q8IL11); assay: P. falciparum M17LAP inhibitors, primary screen, biochemical, fluorogenic H-Leu-NHMec substrate, 1536-well (AID 1619); assay type: functional
T5 sequence (Q8IL11 whole entry): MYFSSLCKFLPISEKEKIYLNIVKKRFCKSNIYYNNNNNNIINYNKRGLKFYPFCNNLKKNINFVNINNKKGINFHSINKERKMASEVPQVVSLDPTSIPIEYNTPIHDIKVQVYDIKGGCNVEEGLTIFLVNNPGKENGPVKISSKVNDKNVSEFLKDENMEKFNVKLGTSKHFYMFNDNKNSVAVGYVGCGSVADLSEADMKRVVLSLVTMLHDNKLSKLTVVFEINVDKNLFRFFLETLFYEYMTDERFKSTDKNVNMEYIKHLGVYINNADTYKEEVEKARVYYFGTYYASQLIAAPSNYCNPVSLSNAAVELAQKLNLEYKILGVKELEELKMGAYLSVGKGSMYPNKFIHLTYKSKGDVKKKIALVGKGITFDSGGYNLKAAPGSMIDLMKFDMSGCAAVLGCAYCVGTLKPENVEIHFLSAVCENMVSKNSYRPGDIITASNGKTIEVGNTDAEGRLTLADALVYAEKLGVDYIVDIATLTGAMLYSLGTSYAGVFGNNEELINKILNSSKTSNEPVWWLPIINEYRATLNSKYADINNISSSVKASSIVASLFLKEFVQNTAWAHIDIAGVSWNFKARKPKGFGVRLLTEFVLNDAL

[9] = antiviral protection against BTV-induced cell death – arbovirus, BSR cells, confirmation (AID 1250); assay type: functional;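 note: protection from viral cytopathic effect measured as cell viability by ATP luminescence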
[10] = fluconazole-exposed Candida albicans growth modulators – fluorescence, retest, confirmation (AID 2467); assay type: functional, cell-based
[11] = NIH-3T3 fibroblast cytotoxicity, dose response, cytotoxicity control, cell-based, fluorescence, Alamar Blue, secondary assay (AID 2327); assay type: functional;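 note: NIH-3T3 mouse fibroblasts cultured with fluconazole at 8 µg/mL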
[12] = biological target: Genome polyprotein (dengue virus type 2, UniProt P29990); assay: flavivirus cap methylation enzyme inhibition – biochemical, confirmation dose response, primary screen (AID 588689); assay type: functional
[13] = biological target: Cytochrome P450 2D6 (Homo sapiens, UniProt P10635);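 note: CYP2D6 member of a cytochrome P450 panel assay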
[14] = biological target: T6, Cytochrome P450 1A2 (Homo sapiens, UniProt P05177);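 note: PubChem cytochrome P450 panel assay, CYP1A2 panel member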
T6 sequence (P05177 whole entry): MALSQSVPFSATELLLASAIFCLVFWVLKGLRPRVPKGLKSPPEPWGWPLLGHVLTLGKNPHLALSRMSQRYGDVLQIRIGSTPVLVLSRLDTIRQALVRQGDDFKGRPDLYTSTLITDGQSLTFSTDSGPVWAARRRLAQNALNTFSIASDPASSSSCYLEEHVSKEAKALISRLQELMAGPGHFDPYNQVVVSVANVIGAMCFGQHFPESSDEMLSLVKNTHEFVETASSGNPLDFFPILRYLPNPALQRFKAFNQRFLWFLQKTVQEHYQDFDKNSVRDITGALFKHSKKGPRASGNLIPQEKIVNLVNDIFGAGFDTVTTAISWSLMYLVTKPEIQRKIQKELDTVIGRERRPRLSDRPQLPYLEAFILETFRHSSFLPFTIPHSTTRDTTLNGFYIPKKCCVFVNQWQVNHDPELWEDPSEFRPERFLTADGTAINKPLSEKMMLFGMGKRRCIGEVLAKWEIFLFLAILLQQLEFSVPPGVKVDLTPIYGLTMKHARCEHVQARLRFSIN

[15] = biological target: DNA dC->dU-editing enzyme APOBEC-3A (Homo sapiens, UniProt P31941); assay: Dose Response confirmation of small molecule APOBEC3A DNA Deaminase Inhibitors via a fluorescence-based single-stranded DNA deaminase assay. [Related pubchem assays (depositor defined):AID493011, AID493024]; assay type: functional
Sequence of DNA dC->dU-editing enzyme APOBEC-3A (P31941 whole entry): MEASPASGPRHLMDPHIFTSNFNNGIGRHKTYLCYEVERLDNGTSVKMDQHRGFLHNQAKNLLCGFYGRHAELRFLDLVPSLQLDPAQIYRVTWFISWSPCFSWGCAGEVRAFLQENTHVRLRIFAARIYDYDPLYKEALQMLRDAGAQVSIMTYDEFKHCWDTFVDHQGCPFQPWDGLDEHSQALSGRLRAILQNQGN

Sequence of Large T antigen (P03070 whole entry): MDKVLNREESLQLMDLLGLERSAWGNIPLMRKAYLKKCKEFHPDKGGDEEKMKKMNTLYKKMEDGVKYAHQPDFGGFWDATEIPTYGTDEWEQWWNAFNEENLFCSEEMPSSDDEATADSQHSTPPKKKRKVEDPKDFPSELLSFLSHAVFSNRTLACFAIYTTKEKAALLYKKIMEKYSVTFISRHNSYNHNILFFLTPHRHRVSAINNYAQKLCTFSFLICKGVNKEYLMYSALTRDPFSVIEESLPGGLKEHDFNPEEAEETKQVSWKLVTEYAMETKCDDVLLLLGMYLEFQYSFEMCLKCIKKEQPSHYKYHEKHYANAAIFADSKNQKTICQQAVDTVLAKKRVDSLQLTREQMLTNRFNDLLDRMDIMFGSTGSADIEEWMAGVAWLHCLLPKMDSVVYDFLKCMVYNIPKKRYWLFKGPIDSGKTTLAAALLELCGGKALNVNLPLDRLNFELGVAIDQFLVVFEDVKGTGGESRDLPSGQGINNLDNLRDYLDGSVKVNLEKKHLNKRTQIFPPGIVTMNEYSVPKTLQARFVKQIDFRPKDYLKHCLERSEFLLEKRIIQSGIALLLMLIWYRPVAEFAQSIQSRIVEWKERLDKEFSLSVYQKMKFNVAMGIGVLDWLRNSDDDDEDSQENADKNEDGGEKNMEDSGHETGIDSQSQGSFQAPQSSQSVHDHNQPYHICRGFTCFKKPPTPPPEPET
Sequence of Genome polyprotein (P29990 2492-3391 limits assumed): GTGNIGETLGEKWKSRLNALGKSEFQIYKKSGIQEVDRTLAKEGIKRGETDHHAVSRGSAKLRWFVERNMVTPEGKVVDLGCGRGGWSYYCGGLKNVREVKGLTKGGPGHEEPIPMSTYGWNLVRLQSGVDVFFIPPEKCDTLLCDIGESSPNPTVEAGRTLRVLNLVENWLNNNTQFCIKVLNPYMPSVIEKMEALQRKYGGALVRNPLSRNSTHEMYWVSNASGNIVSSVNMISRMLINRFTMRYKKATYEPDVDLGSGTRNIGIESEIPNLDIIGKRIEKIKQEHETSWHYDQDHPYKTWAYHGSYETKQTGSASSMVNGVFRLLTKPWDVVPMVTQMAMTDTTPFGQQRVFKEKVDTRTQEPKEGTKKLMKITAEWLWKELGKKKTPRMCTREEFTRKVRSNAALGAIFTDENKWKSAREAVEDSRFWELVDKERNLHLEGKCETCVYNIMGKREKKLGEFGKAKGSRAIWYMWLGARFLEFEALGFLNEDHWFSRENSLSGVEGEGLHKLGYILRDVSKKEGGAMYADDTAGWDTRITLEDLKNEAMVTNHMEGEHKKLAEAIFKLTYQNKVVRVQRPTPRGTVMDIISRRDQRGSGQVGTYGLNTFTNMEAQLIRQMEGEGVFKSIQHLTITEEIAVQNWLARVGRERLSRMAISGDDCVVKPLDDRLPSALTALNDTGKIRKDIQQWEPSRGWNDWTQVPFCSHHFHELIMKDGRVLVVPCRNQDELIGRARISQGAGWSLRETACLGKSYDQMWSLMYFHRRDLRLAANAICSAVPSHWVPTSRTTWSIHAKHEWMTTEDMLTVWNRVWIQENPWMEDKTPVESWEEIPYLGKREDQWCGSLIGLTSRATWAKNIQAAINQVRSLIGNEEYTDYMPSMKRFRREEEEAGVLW
Sequence of Cytochrome P450 2D6 (P10635 whole entry): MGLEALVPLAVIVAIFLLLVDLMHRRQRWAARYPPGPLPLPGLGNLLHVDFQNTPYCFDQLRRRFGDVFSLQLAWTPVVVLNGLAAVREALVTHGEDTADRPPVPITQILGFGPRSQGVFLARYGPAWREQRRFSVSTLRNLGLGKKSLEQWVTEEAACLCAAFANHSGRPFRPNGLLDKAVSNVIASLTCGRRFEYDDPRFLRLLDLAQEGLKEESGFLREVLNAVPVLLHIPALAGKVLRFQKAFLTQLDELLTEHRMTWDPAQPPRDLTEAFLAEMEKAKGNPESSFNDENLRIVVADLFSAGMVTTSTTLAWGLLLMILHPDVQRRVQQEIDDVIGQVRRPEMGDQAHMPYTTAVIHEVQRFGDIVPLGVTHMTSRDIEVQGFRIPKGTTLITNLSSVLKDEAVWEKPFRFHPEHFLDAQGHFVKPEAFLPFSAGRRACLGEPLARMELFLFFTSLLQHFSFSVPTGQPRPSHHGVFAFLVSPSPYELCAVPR

## CN(C)c1ccc(NC(=O)CN2C(=O)CN=C(c3ccccc3)c3ccccc32)cc1
[1]
  IC50: 11.9 µM (active)
[2]
  IC50: 72 µM (active)

## COC(=O)c1ccccc1Sc1ncnc2onc(C)c12
[3]
  AC50: 12.4 µM (active)
[4]
  CC50: > 40 µM (active)
[5]
  EC50: 9.04 µM (active)
[6]
  IC50: 10.9 µM (active)

## O=C1NC(=O)N(Cc2ccccc2)C(=O)/C1=C/NNC(=O)c1ccccc1O
[7]
  IC50: 17.3 µM (active)
[8]
  IC50: 62.3 µM (active)
[9]
  IC50: 97.4 µM (active)

## Cc1nc(N)sc1N=Nc1c(C)n(C)n(-c2ccccc2)c1=O
[1]
  IC50: 17.3 µM (active)

## O=C1NC2(CCC3(CC2)OCCO3)NN1c1ccc(Cl)cc1
[10]
  EC50: 1.64 µM (active)
[4]
  CC50: > 40 µM (active)
[11]
  EC50: > 150 µM (inactive)

## COc1cc(/C=C2\C(=O)NC(=O)N(CCc3ccc(F)cc3)C2=O)ccc1O
[1]
  IC50: 20 µM (active)
[8]
  IC50: 15.8 µM (active)

## O=C1Nc2ccc(F)cc2C12Nc1ccccc1-c1nnc(SCc3ccccc3F)nc1O2 (stereo unspecified)
[7]
  IC50: 68.4 µM (active)
[12]
  IC50: 30.8 µM (active)
[13]
  AC50: 14.1 µM (inconclusive)
[14]
  AC50: 10 µM (inconclusive)

## CCC(Oc1ccccc1OC)C(=O)Nc1ccc2c(c1)OCCO2 (stereo unspecified)
[15]
  IC50: 6.09 µM (active)

## COc1cc(/C=N/Nc2ccnc(O)n2)ccc1O
[1]
  IC50: 6.16 µM (active)
